Measured values reported in ChEMBL document CHEMBL5696441 (Nat Chem Biol, 2011).

Key:
[1] = target: Protein kinase C alpha type (Homo sapiens) (UniProt P17252); experiment: Inhibition of human PKCalpha assessed as residual activity at 1 uM using 3xChocktide-PKC(19-31) as substrate in presence of 33P-ATP by ProQinase assay relative to control
[2] = target: Serine/threonine-protein kinase ULK1 (Homo sapiens) (UniProt O75385); experiment: Inhibition of ULK1 (unknown origin) assessed as remaining activity at 1 uM by Kinome scan method relative to control
[3] = target: Ephrin type-B receptor 3 (Homo sapiens) (UniProt P54753); experiment: Inhibition of human EPHB3 assessed as residual activity at 1 uM using polyEY as substrate in presence of 33P-ATP by ProQinase assay relative to control
[4] = Anti-inflammatory activity against human derived medium respond PBMC cells assessed as inhibition in stimulated TARC chemokine release incubated for 2 hrs in the presence of LPS/SEB/aCD28 by Luminex based sandwich immunoassay; format: functional, cell-based
[5] = Anti-inflammatory activity against human derived high respond PBMC cells assessed as inhibition in stimulated TARC chemokine release incubated for 2 hrs in the presence of LPS/SEB/aCD28 by Luminex based sandwich immunoassay; format: functional, cell-based
[6] = target: Myosin-IIIa (Homo sapiens) (UniProt Q8NEV4); experiment: Inhibition of MYO3A (unknown origin) assessed as remaining activity at 1 uM by Kinome scan method relative to control
[7] = target: Serine/threonine-protein kinase Sgk2 (Homo sapiens) (UniProt Q9HBY8); experiment: Inhibition of human SGK2 assessed as residual activity at 1 uM using RBER-GSK3(14-27) as substrate in presence of 33P-ATP by ProQinase assay relative to control
[8] = system: Hepatocyte growth factor receptor (Homo sapiens), P08581 [Y1230D]; experiment: Inhibition of human MET Y1230D mutant assessed as residual activity at 1 uM using poly(Ala,Glu,Lys,Tyr)6:2:5:1 as substrate in presence of 33P-ATP by ProQinase assay relative to control
[9] = target: Rho-associated protein kinase 2 (Homo sapiens) (UniProt O75116); experiment: Inhibition of human ROCK2 assessed as residual activity at 1 uM using RB-S6P as substrate in presence of 33P-ATP by ProQinase assay relative to control
[10] = target: Mitogen-activated protein kinase kinase kinase kinase 5 (Homo sapiens) (UniProt Q9Y4K4); experiment: Inhibition of human MAP4K5 assessed as residual activity at 1 uM using casein as substrate in presence of 33P-ATP by ProQinase assay relative to control
[11] = target: Mitogen-activated protein kinase kinase kinase kinase 4 (Homo sapiens) (UniProt O95819); experiment: Inhibition of human MAP4K4 assessed as residual activity at 1 uM using casein as substrate in presence of 33P-ATP by ProQinase assay relative to control
[12] = target: T1, Serine/threonine-protein kinase DCLK2 (Homo sapiens) (UniProt Q8N568); experiment: Inhibition of human DCAMKL2 assessed as residual activity at 1 uM using RBER-CHKtide as substrate in presence of 33P-ATP by ProQinase assay relative to control
T1 sequence (whole entry): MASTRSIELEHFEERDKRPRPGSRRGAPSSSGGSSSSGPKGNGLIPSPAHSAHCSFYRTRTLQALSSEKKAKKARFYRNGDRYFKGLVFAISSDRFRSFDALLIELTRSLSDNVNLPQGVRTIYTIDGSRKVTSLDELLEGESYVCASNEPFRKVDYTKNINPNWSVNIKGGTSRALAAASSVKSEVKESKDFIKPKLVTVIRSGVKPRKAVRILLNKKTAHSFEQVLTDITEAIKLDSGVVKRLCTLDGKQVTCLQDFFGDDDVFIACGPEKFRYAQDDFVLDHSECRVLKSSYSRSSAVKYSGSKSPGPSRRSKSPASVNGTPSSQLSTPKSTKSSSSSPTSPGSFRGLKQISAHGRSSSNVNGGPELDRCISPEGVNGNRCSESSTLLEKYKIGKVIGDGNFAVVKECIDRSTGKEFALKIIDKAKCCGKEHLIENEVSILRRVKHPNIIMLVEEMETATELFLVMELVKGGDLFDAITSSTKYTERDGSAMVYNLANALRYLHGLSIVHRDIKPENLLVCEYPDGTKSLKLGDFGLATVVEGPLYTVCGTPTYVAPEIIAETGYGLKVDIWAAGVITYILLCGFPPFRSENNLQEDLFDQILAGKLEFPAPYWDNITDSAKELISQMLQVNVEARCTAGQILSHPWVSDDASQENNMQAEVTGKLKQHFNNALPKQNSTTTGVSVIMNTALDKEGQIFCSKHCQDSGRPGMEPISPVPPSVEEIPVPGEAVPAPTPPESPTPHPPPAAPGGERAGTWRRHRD

[13] = target: Serine/threonine-protein kinase 33 (Homo sapiens) (UniProt Q9BYT3); experiment: Inhibition of human STK33 assessed as residual activity at 1 uM using RBER-CHKtide as substrate in presence of 33P-ATP by ProQinase assay relative to control
[14] = target: Serine/threonine-protein kinase Nek6 (Homo sapiens) (UniProt Q9HC98); experiment: Inhibition of NEK6 (unknown origin) assessed as remaining activity at 1 uM by Kinome scan method relative to control
[15] = target: ALK tyrosine kinase receptor (Homo sapiens) (UniProt Q9UM73); experiment: Inhibition of ALK (unknown origin) assessed as remaining activity at 1 uM by Kinome scan method relative to control
[16] = target: Serine/threonine-protein kinase pim-1 (Homo sapiens) (UniProt P11309); experiment: Inhibition of human PIM1 assessed as residual activity at 1 uM using RBER-GSK3(14-27) as substrate in presence of 33P-ATP by ProQinase assay relative to control
[17] = target: Mitogen-activated protein kinase 3 (Homo sapiens) (UniProt P27361); experiment: Inhibition of ERK1 (unknown origin) assessed as remaining activity at 1 uM by Kinome scan method relative to control
[18] = target: Serine/threonine-protein kinase 24 (Homo sapiens) (UniProt Q9Y6E0); experiment: Inhibition of human MST3 assessed as residual activity at 1 uM using casein as substrate in presence of 33P-ATP by ProQinase assay relative to control
[19] = target: Hepatocyte growth factor receptor (Homo sapiens) (UniProt P08581); experiment: Inhibition of MET (unknown origin) assessed as remaining activity at 1 uM by Kinome scan method relative to control
[20] = target: Serine/threonine-protein kinase SIK1 (Homo sapiens) (UniProt P57059); experiment: Inhibition of SIK (unknown origin) assessed as remaining activity at 1 uM by Kinome scan method relative to control
[21] = target: Tyrosine-protein kinase ZAP-70 (Homo sapiens) (UniProt P43403); experiment: Inhibition of human ZAP70 assessed as residual activity at 1 uM using polyEY as substrate in presence of 33P-ATP by ProQinase assay relative to control
[22] = target: Serine/threonine-protein kinase PLK3 (Homo sapiens) (UniProt Q9H4B4); experiment: Inhibition of human PLK3 assessed as residual activity at 1 uM using casein as substrate in presence of 33P-ATP by ProQinase assay relative to control

Sequence of Myosin-IIIa (Homo sapiens) (Q8NEV4 whole entry): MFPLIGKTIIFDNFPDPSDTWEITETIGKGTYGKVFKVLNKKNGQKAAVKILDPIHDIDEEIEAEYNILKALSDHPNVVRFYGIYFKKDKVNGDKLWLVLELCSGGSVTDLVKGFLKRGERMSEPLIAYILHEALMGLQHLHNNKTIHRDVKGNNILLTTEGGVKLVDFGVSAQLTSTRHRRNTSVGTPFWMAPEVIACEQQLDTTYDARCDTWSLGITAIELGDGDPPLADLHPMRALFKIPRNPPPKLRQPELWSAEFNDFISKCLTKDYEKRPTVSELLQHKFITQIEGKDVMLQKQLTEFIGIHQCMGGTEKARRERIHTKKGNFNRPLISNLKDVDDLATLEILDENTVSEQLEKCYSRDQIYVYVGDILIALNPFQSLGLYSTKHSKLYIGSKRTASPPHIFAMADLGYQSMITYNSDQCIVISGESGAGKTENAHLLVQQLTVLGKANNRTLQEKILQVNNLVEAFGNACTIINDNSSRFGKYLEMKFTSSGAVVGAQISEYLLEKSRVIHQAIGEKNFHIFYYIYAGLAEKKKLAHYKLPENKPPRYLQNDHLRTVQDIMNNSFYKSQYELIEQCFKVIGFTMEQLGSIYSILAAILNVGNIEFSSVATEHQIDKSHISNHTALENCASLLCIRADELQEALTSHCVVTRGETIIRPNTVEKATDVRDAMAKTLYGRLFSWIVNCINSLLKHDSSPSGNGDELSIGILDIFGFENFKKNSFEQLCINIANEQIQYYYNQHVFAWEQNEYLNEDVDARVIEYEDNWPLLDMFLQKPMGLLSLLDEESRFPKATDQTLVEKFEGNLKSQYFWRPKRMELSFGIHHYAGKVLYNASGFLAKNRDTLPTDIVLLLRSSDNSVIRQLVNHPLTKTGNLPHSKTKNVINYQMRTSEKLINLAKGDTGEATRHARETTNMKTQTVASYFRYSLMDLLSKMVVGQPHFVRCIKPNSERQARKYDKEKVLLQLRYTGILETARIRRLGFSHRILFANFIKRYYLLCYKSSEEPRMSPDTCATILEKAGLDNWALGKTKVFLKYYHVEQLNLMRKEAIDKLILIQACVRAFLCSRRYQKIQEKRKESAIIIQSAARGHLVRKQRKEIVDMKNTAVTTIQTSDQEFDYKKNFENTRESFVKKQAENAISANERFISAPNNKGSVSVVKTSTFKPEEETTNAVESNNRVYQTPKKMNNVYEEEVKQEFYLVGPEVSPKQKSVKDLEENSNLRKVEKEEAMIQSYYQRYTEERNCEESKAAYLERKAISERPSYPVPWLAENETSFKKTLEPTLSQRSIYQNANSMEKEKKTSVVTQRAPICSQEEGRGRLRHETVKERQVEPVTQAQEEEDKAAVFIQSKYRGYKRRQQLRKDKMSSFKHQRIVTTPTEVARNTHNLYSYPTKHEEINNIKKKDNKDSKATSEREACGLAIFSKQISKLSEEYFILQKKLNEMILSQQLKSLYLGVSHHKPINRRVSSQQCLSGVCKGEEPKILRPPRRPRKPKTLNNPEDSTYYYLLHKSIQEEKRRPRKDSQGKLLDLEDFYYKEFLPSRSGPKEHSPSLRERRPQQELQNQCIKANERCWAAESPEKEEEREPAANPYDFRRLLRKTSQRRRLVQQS
Sequence of Serine/threonine-protein kinase ULK1 (Homo sapiens) (O75385 whole entry): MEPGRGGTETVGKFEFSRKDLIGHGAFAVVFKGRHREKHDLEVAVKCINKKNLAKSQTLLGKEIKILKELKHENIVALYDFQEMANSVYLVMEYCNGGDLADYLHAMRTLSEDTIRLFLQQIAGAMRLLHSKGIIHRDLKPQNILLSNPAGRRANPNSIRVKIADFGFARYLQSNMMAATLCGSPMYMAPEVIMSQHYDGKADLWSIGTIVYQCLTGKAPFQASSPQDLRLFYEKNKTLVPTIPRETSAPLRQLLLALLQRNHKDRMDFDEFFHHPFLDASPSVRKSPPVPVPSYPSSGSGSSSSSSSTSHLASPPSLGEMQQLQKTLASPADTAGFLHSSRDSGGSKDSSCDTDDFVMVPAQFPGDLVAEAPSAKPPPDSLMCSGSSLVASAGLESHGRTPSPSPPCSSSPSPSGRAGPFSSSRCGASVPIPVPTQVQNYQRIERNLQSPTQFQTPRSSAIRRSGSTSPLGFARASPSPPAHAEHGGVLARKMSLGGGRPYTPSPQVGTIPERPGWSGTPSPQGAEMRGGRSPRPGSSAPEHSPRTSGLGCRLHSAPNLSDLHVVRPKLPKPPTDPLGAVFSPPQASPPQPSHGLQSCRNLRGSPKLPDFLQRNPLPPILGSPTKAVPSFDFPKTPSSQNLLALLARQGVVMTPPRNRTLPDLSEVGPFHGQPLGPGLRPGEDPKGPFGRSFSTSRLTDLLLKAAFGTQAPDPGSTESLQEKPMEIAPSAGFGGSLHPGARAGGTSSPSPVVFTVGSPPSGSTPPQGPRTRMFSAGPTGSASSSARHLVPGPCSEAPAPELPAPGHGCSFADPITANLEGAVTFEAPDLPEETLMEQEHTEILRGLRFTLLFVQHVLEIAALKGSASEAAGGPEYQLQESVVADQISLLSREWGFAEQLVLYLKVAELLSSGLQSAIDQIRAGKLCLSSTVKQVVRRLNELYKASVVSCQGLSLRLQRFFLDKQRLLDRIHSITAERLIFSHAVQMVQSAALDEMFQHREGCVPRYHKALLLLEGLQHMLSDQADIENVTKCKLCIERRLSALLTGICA
Sequence of Serine/threonine-protein kinase 33 (Homo sapiens) (Q9BYT3 whole entry, looked up): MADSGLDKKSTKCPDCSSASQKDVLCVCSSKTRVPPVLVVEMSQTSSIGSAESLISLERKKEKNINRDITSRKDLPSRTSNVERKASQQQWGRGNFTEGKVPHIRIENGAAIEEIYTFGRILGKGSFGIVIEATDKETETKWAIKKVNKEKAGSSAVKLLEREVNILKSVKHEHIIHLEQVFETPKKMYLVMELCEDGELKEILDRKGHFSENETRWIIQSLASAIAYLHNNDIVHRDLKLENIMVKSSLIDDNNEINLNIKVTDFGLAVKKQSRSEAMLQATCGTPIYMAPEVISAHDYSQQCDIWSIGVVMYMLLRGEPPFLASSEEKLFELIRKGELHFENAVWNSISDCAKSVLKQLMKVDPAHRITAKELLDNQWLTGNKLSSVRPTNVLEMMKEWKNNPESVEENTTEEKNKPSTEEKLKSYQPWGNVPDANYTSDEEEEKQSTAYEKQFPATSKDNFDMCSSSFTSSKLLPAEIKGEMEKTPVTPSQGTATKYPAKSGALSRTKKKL
Sequence of Mitogen-activated protein kinase 3 (Homo sapiens) (P27361 whole entry): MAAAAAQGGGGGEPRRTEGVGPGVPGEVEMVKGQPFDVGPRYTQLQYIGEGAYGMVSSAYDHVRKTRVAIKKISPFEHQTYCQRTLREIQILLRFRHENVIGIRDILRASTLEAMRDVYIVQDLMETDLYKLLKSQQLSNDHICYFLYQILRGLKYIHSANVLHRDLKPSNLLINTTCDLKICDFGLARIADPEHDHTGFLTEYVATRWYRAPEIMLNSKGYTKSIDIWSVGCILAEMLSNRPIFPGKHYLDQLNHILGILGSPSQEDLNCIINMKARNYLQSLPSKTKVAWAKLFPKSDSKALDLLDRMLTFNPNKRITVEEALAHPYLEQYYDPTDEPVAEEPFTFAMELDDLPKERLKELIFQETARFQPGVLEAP
Sequence of Serine/threonine-protein kinase Nek6 (Homo sapiens) (Q9HC98 whole entry): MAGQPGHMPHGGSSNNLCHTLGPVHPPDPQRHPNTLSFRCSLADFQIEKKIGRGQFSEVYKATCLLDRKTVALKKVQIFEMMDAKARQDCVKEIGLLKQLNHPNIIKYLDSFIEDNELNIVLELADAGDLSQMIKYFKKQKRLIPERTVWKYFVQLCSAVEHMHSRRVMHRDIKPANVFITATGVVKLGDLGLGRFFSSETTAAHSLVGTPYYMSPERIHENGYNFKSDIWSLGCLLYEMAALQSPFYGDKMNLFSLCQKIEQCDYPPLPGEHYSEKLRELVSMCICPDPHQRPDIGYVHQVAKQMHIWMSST
Sequence of Serine/threonine-protein kinase Sgk2 (Homo sapiens) (Q9HBY8 whole entry): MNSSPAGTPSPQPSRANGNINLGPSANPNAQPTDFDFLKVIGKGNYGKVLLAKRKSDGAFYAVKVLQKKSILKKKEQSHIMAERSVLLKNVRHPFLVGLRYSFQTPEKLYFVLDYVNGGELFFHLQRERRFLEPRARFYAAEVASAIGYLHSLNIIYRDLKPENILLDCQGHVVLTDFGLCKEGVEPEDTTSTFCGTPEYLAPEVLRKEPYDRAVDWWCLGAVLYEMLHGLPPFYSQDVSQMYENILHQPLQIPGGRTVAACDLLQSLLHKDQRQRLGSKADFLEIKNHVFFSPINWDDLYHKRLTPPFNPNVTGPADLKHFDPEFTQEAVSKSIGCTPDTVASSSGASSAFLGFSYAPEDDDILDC

For `O=C1c2ccc(Nc3ccc(F)cc3F)cc2CCc2ccc(OC[C@H](O)CO)cc21` [Skepinone-L], the Activity [1] was 96%, the Activity [2] was 100% and the Activity [3] was 108%. The IC50 [4] was “Not Active”, the IC50 [5] was “Not Active” and the Activity [6] was 89%. For the same compound, the Activity [7] was 89%, the Activity [8] was 95% and the Activity [9] was 90%. For the same compound, the Activity [10] was 84%, the Activity [11] was 79% and the Activity [12] was 83%. The Activity [13] was 94%, the Activity [14] was 100% and the Activity [15] was 100%. It also gave an Activity [16] of 105%, an Activity [17] of 100% and an Activity [18] of 106%. The Activity [19] was 100%, the Activity [20] was 100% and the Activity [21] was 98%. The Activity [22] was 99%.
